Test results: US8076334B2, “Prodrugs of thyroid hormone analogs” (Hoffmann-La Roche Inc., priority 2007, dated 2011)

Experiments:
[1] = Permeability from Caco-2 cells (transport assay); format: in vitro ADME; conditions: human; Caco-2 monolayers, transport medium pH 7.4, samples at 60 and 120 min
Procedure: (§1) Caco-2 cells were grown in Minimum Essential Medium (MEM), containing 10% fetal bovine serum, 1% non-essential amino acids, 100 units/ml penicillin and 100 μg/ml streptomycin. They were incubated at 37° C. in a humidified atmosphere of 5% CO2. Culture medium was changed every other day. Caco-2 cells were passed once per week by trypsinization.
(§2) Caco-2 cells were seeded at a density of 4.55×10^5 cells/cm^2. Caco-2 cells were incubated for 7 days at 37° C. Medium was changed every two or three days for Caco-2 cells. Prior to the experiment, cells were equilibrated with transport medium [HBSS (pH 7.4) containing 10 mM HEPES] at 37° C. for 30 min. The transepithelial electrical resistance (TEER) of cell monolayers was measured using “chopstick” electrodes (World Precision Instruments, Sarasota, Fla.). Caco-2 cell monolayers with TEER values>500 were used for the assays.
(§3) Samples were prepared in transport medium containing 1% DMSO. Test compounds were applied to the donor chamber at 10 μM. Plates were incubated at 37 °C while shaking at 90 rpm. Samples were taken at 60 and 120 min from the receiver chamber. TEER values were measured at 5 minutes before the final sampling time point. Samples were mixed with 2 volumes of acetonitrile and centrifuged at 3,500 rpm at 4° C. for 10 min. The supernatant was diluted with 1 volume of water containing 1% acetic acid. Samples were analyzed by LC/MS. Standard serial dilutions were prepared manually at 10, 50, 250, 1,250 and 2,500 nM.
(§4) The apparent permeability (Papp) was calculated with the following equation:
(§5) [formula] where C is the receiver chamber drug concentration, t is time in second, V is the volume of the receiver chamber, Co is the initial drug concentration in the donor chamber and A is the surface area of the filter.

[2] = test system: Caco-2 cells; assay: Permeability from Caco-2 cells (transport assay); format: in vitro ADME; conditions: Caco-2; calculated from pro-drug only, does not include converted drug; in % (unit assumed)
Procedure: as §1, §2, §3, §4, §5

[3] = biological target: T1, THR-beta/RXR/GRIP (Homo sapiens, UniProt P10828); assay: THR-beta/RXR/GRIP coactivator peptide recruitment assay (HTRF); format: biochemical; conditions: H6-TRβ ligand binding domain, EE-RxRα, biotin-GRIP peptide
T1 construct: made in house; host or cells: E. coli BL21 (DE3) for H6-TRβ; E. coli for EE-RxRα
T1 sequence (P10828 202-461 limits assumed): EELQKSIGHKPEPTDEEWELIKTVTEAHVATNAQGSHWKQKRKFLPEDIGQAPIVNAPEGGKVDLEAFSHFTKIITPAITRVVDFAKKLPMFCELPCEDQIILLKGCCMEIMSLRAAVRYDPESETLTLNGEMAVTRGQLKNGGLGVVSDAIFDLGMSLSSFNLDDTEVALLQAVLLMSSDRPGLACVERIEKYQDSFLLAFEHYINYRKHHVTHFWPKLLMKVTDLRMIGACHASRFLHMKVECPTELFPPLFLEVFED
T1 sequence (P19793 225-462 partner limits assumed): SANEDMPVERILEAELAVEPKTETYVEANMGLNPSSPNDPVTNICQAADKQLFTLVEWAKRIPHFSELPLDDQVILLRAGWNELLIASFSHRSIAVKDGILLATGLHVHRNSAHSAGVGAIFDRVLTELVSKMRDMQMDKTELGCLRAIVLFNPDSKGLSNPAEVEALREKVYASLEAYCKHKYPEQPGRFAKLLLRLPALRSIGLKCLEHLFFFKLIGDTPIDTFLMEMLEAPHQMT
T1 sequence (Q15596 679-703 partner limits assumed): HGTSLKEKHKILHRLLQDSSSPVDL
Procedure: In this Example, a TR/RXR/GRIP assay was used to test representative compounds of formula (I).
Lysozyme (1.0 mg/ml, Sigma) and Complete Protease Inhibitor Cocktail (Roche Diagnostics Gmbh) were added to slurry and solution sonicated for one min five times at 4° C.
The resulting His6-EE-tagged protein was produced in E. coli cells. Cells were grown using shake flasks with an 18 hour induction in 0.1 mM IPTG at 18° C., harvested and suspended with five volumes of Buffer B (0.025M Tris, 0.3M NaCl, 0.02 M imidazole, 0.01M β-mercaptoethanol, pH 8.0). Lysozyme (0.2 mg/ml, Sigma) and Complete Protease Inhibitor Cocktail (Roche Diagnostics Gmbh) were added and stirred for 30 min. at 4° C. The suspension was sonicated for 30 seconds, five times, at 4° C. The suspension was centrifuged for 20 min. at 12,000 RCF. The supernatant was filtered by 0.45 μm pore size membrane and 0.5% NP-40 was added. […] The protein was concentrated and dialyzed.
The His6 tag was removed from EE-RxRα by thrombin digestion, using 10 units thrombin (Pharmacia, Piscataway, N.J.) per mg protein and incubating for 2 hours at 25° C. […]
Six microliters of T3 (0-14.8 uM) or test compound (0-1.2 mM) in DMSO was then added and the solution incubated at 37° C. for 30 min. […] The HTRF signal was read on the Victor 5 reader (PerkinElmer Life and Analytical Sciences).

[4] = Single dose PO PK in rats; format: in vivo; conditions: rat, 10 mg/kg PO
Procedure: A single dose (10 mg/kg) PO (intubation) PK in rats (3 animals) was performed with the compound of Example 5 using a 2% Klucel, 0.1% Tween 80 in water formulation.
Aliquots (0.05 mL) of rat plasma were protein precipitated with acetonitrile. The extracts were diluted with an equal volume of water and injected onto the LC/MS/MS system.
Both the prodrug and parent, compound Ia, were monitored. […] Variability in exposure of the parent after dosing with the prodrug was improved over that obtained after dosing with parent.

[5] = Single dose PO PK in dogs; format: in vivo; conditions: dog, 10 mg/kg PO
Procedure: A single dose (10 mg/kg) PO (intubation) PK in dogs (3 animals) was performed with the compound of Example 5 using a 2% Klucel, 0.1% Tween 80 in water formulation.
Aliquots (0.05 mL) of dog plasma were mixed with 0.050 mL of pH 7.4 phosphate buffered saline and a 0.010 mL aliquot of a stable labeled internal standard working solution. Each of the samples was then extracted with 0.500 mL of ethyl acetate. A 0.350 mL aliquot of each of the sample extract supernatant was transferred to an injection block and evaporated to dryness using the turbovap evaporator. The sample was then reconstituted with 0.200 mL of a 1:1 mixture of water:acetonitrile containing 0.1% acetic acid. A 0.020 mL sample from each well was injected onto the LC/MS/MS system.
The compound of Example 5was dosed orally to dogs at 10 mg/kg. Both the prodrug and parent, compound Ia, were monitored. […] However, the variability in the oral exposure was reduced when dosed with the compound of Example 5 as compared when dosed with parent.

[6] = plasma level of parent compound Ia

| SMILES | Papp at 120 min, 10 μM [1] | Mass Balance [2] | further results |
| --- | --- | --- | --- |
| CC(C)c1cc(Oc2c(Cl)cc(-n3nc(C#N)c(=O)[nH]c3=O)cc2Cl)nn(COC(=O)N2CCOCC2)c1=O [Example 6, Morpholine-4-carboxylic acid 3-[2,6-dichloro-4-(6-cyano-3,5-dioxo-4,5-dihydro-3H-[1,2,4]triazin-2-yl)-phenoxy]-5-isopropyl-6-oxo-6H-pyridazin-1-ylmethyl ester] | 1.24 ± 0.24 ×10⁻⁶ cm/s | 101.5 | – |
| CC(C)c1cc(Oc2c(Cl)cc(-n3nc(C#N)c(=O)[nH]c3=O)cc2Cl)nn(COC(=O)CN2CCOCC2)c1=O [Example 12, Morpholin-4-yl-acetic acid 3-[2,6-dichloro-4-(6-cyano-3,5-dioxo-4,5-dihydro-3H-[1,2,4]triazin-2-yl)-phenoxy]-5-isopropyl-6-oxo-6H-pyridazin-1-ylmethyl ester] | 1.75 ± 0.65 ×10⁻⁶ cm/s | 95.0 | – |
| CC(C)c1cc(Oc2c(Cl)cc(-n3nc(C#N)c(=O)[nH]c3=O)cc2Cl)nn(COC(=O)CCC(=O)O)c1=O [Example 13, Succinic acid mono-{3-[2,6-dichloro-4-(6-cyano-3,5-dioxo-4,5-dihydro-3H-[1,2,4]triazin-2-yl)-phenoxy]-5-isopropyl-6-oxo-6H-pyridazin-1-ylmethyl}ester] | 0.23 ± 0.06 ×10⁻⁶ cm/s | 84.4 | – |
| CC(C)c1cc(Oc2c(Cl)cc(-n3nc(C#N)c(=O)[nH]c3=O)cc2Cl)n[nH]c1=O [Ia, 2-[3,5-Dichloro-4-(5-isopropyl-6-oxo-1,6-dihydro-pyridazin-3-yloxy)-phenyl]-3,5-dioxo-2,3,4,5-tetrahydro-[1,2,4]triazine-6-carbonitrile, reference compound] | – | – | AUC Extrap [4, 6]: 28,663 ng * Hours/mL; Tmax [4, 6]: 5 h; AUC [5, 6]: 2,936 ng * Hours/mL; Tmax [5, 6]: 3 h |

Second part, led by results:

| Papp at 120 min, 10 μM [1] | Mass Balance [2] | SMILES | further results |
| --- | --- | --- | --- |
| 4.58 ± 0.74 ×10⁻⁶ cm/s | 71.0 | CC(=O)OCn1nc(Oc2c(Cl)cc(-n3nc(C#N)c(=O)[nH]c3=O)cc2Cl)cc(C(C)C)c1=O [Example 2, Acetic acid 3-[2,6-dichloro-4-(6-cyano-3,5-dioxo-4,5-dihydro-3H-[1,2,4]triazin-2-yl)-phenoxy]-5-isopropyl-6-oxo-6H-pyridazin-1-ylmethyl ester] | – |
| 8.87 ± 0.63 ×10⁻⁶ cm/s | 47.9 | CC(C)C(=O)OCn1nc(Oc2c(Cl)cc(-n3nc(C#N)c(=O)[nH]c3=O)cc2Cl)cc(C(C)C)c1=O [Example 5, Isobutyric acid 3-[2,6-Dichloro-4-(6-cyano-3,5-dioxo-4,5-dihydro-3H-[1,2,4]triazin-2-yl)-phenoxy]-5-isopropyl-6-oxo-6H-pyridazin-1-ylmethyl ester] | EC50 [3]: > 57.6 µM; Absorption of the prodrug compared with the parent [4]: faster than the parent; Variability in exposure of the parent after dosing with the prodrug versus dosing with parent [4]: improved; Species detected in plasma after oral dosing of the prodrug ([4]; prodrug and parent monitored): only the parent was detected; Bioavailability of parent after dosing with the prodrug versus dosing with parent [5]: comparable; Variability in the oral exposure versus dosing with parent [5]: reduced; Species detected in plasma after oral dosing of the prodrug ([5]; prodrug and parent monitored): only the parent was detected |
| 0.92 ± 0.11 ×10⁻⁶ cm/s | 92.8 | CC(C)c1cc(Oc2c(Cl)cc(-n3nc(C#N)c(=O)[nH]c3=O)cc2Cl)nn(COC(=O)c2cnccn2)c1=O [Example 8, Pyrazine-2-carboxylic acid 3-[2,6-dichloro-4-(6-cyano-3,5-dioxo-4,5-dihydro-3H-[1,2,4]triazin-2-yl)-phenoxy]-5-isopropyl-6-oxo-6H-pyridazin-1-ylmethyl ester] | – |
